Patent publication US8067424B2, “Selective inhibitors for cyclin-dependent kinases” (Emory University, priority 2007, dated 2011)
Read-outs that look alike come from different tables or passages of the source.

How the values were obtained:
[1] = molecular target: T1, p38σ MAPK (Homo sapiens, UniProt O15264); experiment: Kinase screen: SAPK 4/p38d assay; type: biochemical
T1 sequence (O15264 1-365): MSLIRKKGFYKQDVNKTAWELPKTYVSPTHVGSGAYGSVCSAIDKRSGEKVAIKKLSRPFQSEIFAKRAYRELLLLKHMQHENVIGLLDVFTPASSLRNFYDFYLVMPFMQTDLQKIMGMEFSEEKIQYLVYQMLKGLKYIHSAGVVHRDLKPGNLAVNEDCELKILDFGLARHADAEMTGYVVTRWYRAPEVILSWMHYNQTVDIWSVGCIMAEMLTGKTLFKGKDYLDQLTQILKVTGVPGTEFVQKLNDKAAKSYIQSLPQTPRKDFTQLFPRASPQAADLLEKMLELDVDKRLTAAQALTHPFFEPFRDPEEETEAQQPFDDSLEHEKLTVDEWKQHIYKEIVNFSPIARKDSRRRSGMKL
Protocol: (§1) Generally, the same procedure was used for all assays. Since the total assay volume was 25.5 microliters, 0.5 microliters of inhibitors at 51× assay concentration were added to the plates before any other addition.
(§2) The basic procedure was to add 0.5 microliters inhibitor/control in DMSO to plate. Fifteen microliters of enzyme/substrate/buffer mix were added and incubated for 5 min. Ten microliters MgATP at the relevant concentration were added and incubated for 30 min. The assay was stopped by adding 5 microliters of 3% orthophosphoric acid. The assay was transferred to a p81 filter plate and read in a scintillation counter of 30 sec/well. Note that this assay procedure was not followed for MKK1, which instead involved a two-step assay, and PKC alpha, which required the addition of lipid vesicles.
SAPK 4/p38d assay: SAPK 4/p38d (5-20 mU diluted in 50 mM Tris pH 7.5, 0.1 mM EGTA, 0.1 mM Na3VO4, 0.1% b-mercaptoethanol, 1 mg/ml BSA) was assayed against MBP in a final volume of 25.5 μl containing 25 mM Tris pH 7.5, 0.1 mM EGTA, 0.33 mg/ml MBP, 10 mM magnesium acetate and 0.005 mM [33P-g-ATP] (50-1000 cpm/pmole) and incubated for 30 min at room temperature. Assays were stopped by addition of 5 μl of 0.5 M (3%) orthophosphoric acid and then harvested onto P81 Unifilter plates with a wash buffer of 50 mM orthophosphoric acid.

[2] = molecular target: T2, TBK1 (Homo sapiens, UniProt Q9UHD2); experiment: Kinase screen: TBK1 / TBK1 (DU12569) assay; type: biochemical; settings: 10 micromolar compound; for remaining activity at 10 µM: read-out: mean activity remaining (as a percentage of the original activity), TBK1
T2 construct: DU12569
T2 sequence (Q9UHD2 1-729): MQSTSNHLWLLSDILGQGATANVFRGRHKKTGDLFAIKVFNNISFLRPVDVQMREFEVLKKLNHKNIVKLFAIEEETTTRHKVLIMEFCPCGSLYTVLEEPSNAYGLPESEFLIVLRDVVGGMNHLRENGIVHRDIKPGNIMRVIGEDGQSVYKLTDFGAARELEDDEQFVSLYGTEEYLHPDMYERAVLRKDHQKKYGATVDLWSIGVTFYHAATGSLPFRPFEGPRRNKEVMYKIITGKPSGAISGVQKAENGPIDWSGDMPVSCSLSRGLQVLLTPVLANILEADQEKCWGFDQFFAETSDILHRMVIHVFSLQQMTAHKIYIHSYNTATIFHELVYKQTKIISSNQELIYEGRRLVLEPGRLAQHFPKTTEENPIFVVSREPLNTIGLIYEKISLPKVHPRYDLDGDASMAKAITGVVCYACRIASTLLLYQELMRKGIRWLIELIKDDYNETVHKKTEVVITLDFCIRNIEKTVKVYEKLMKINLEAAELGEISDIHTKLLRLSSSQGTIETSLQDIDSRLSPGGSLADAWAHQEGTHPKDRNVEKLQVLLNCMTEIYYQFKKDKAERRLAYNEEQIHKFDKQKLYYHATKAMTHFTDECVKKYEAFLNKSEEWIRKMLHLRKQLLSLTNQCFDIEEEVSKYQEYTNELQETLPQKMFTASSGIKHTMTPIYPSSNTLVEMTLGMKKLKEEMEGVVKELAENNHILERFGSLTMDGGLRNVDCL
Protocol: as §1, §2
(§3) TBK1 assay: TBK1 (5-20 mU diluted in 50 mM Tris pH 7.5, 0.1 mM EGTA, 1 mg/ml BSA) was assayed against a substrate peptide ([…]) (SEQ ID NO: 31) in a final volume of 25.5 μl containing 50 mM Tris pH 7.5, 300 μM substrate peptide, 10 mM magnesium acetate and 0.05 mM [33P-g-ATP] (50-1000 cpm/pmole) and incubated for 30 min at room temperature. Assays were stopped by addition of 5 μl of 0.5 M (3%) orthophosphoric acid and then harvested onto P81 Unifilter plates with a wash buffer of 50 mM orthophosphoric acid.
as §3, with “TBK1 (DU12569)” for “TBK1”, “37)” for “31)”

[3] = tested on: MCF-7 cell line; experiment: cells; type: cell-based; settings: Homo sapiens; for IC (total growth inhibition): read-out: TGI
[4] = 10 micromolar compound, read-out: mean activity remaining (as a percentage of the original activity), p38s MAPK
[5] = MCF7, 24 h, MCF-7, SRB assay, 24 hours
[6] = MCF7, MCF-7, SRB assay, 24 hours, mean of three experiments, read-out: IC50

| SMILES | mean activity remaining (as a percentage of the original activity), p38s MAPK ([1]; 10 micromolar compound) | mean activity remaining (as a percentage of the original activity), TBK1 [2] | remaining activity at 10 µM ([1]; p38σ MAPK, 10 μM, read-out: Mean Remaining Enzyme Activity (%)) | remaining activity at 10 µM [1, 4] | IC (total growth inhibition) [3, 5] | IC50 [3, 6] | remaining activity at 10 µM [2] | LC50 (concentration causing 50% net cell kill) [3, 5] | IC50 ([3]; MCF7, 24 h) |
| --- | --- | --- | --- | --- | --- | --- | --- | --- | --- |
| CC(C)c1cnn2c(NCc3ccccc3F)cc(NCCCCCN)nc12 [ICEC-0232] | 78% | 91% |  |  |  |  |  |  |  |
| CC(C)c1cnn2c(NCc3ccccc3)cc(NCCCCCCCN)nc12 [BS-181] |  |  | 96% |  |  |  |  |  |  |
| CC[C@H](CO)Nc1cc(NCc2ccccc2)n2ncc(C(C)C)c2n1 [ICEC0067] |  |  |  | 86% | 13 µM | > 100 µM | 85% |  |  |
| C=C[C@H](CO)Nc1cc(NCc2ccccc2)n2ncc(C(C)C)c2n1 [ICEC0065] |  |  |  | 86% | 12 µM | > 100 µM | 83% | 8.5 µM |  |
| CC(C)c1cnn2c(NCc3ccccc3)cc(N[C@@H](CO)[C@H](O)CO)nc12 [ICEC0318, (3S)-3-(7-(Benzylamino)-3-isopropylpyrazolo[1,5-a]pyrimidin-5-ylamino)butane-1,2,4-triol] |  |  |  | 86% | < 2 µM |  | 87% |  | < 2 µM |
